Tests used:
[1] = biological target: T1, human TLR7 (Homo sapiens, UniProt Q9NYK1); experiment: TLR7 cellular reporter assay (HEK293 TLR7-NFκB-luc); assay type: cell-based; conditions: lowest effective concentration; HEK293 transiently transfected with TLR7 and NFκB-luc; 6 hours incubation
T1 construct: expressed in transfected cells; host or cells: HEK293
T1 sequence (Q9NYK1 27-1049): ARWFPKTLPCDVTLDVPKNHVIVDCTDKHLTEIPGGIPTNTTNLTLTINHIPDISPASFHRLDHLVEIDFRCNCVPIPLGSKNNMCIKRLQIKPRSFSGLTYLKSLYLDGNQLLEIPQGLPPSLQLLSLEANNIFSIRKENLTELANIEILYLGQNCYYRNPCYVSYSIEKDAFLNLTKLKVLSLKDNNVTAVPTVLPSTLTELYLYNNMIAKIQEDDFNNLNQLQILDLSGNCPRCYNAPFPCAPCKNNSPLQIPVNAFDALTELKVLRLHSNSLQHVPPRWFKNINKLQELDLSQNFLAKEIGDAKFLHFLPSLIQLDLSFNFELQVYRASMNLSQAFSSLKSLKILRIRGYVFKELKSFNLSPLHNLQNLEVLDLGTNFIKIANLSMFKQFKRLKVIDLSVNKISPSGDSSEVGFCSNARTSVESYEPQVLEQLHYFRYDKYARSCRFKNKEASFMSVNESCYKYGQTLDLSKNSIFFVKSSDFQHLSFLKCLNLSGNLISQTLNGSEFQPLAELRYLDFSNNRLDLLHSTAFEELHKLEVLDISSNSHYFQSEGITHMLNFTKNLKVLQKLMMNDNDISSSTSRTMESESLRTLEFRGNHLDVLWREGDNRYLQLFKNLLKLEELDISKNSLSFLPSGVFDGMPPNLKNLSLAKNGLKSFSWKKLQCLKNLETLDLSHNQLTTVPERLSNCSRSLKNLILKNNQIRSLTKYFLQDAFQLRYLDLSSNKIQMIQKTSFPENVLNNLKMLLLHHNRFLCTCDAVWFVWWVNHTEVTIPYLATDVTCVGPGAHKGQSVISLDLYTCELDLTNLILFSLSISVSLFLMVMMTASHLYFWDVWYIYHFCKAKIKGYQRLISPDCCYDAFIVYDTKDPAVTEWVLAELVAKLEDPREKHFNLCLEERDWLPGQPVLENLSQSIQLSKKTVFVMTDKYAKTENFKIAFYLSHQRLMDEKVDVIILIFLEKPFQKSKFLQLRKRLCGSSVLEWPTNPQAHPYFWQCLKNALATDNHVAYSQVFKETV
Description: The ability of compounds to activate human TLR7 and TLR8 was assessed in a cellular reporter assay using HEK293 cells transiently transfected with a TLR7 or TLR8 expression vector and NFκB-luc reporter construct. Briefly, HEK293 cells were grown in culture medium (DMEM supplemented with 10% FCS and 2 mM Glutamine). For transfection of cells in 10 cm dishes, cells were detached with Trypsin-EDTA, transfected with a mix of CMV-TLR7 or TLR8 plasmid (750 ng), NFκB-luc plasmid (375 ng) and a transfection reagent and incubated 48 hours at 37° C. in a humidified 5% CO2 atmosphere. Transfected cells were then detached with Trypsin-EDTA, washed in PBS and resuspended in medium to a density of 1.67×10^5 cells/mL. Thirty microliters of cells were then dispensed into each well in 384-well plates, where 10 μL of compound in 4% DMSO was already present. Following 6 hours incubation at 37° C., 5% CO2, the luciferase activity was determined by adding 15 μl of Steady Lite Plus substrate (Perkin Elmer) to each well and readout performed on a ViewLux ultraHTS microplate imager (Perkin Elmer). Dose response curves were generated from measurements performed in quadruplicates. Lowest effective concentrations (LEC) values, defined as the concentration that induces an effect which is at least two fold above the standard deviation of the assay, were determined for each compound.

[2] = tested on: interferon production in human PBMC; experiment: Interferon production in human PBMC, read out on HEK-ISRE-luc reporter cells; assay type: cell-based; conditions: lowest effective concentration, PBMC supernatant after overnight incubation transferred to HEK-ISRE-luc cells; for minimal effective concentration: Homo sapiens, PBMC, 24 h, read-out: PBMC HEK-ISRE-luc (LEC; μM)
Description: Activation of human TLR7 results in robust production of interferon by plasmacytoid dendritic cells present in human blood. The potential of compounds to induce interferon was evaluated by determination of interferon in the conditioned media from peripheral blood mononuclear cells (PBMC). The presence of interferon in the samples was determined, using an interferon reporter cell line stably expressing an interferon-stimulated responsive elements (ISRE)-luc reporter construct. The ISRE element with sequence GAAACTGAAACT (SEQ ID: 1) is highly responsive to the STAT1-STAT2-IRF9 transcription factor, which becomes activated upon binding of IFN-I to the IFN receptor. Briefly, PBMCs were prepared from buffy coats of at least two donors using a standard Ficoll centrifugation protocol. Isolated PBMCs were resuspended in RPMI medium supplemented with 10% human AB serum and 2×10^5 cells/well were dispensed into 384-well plates containing compounds (70 μL total volume). After overnight incubation of the PBMCs with the compounds, 10 μL of supernatant was transferred to 384-well plates containing 5×10^3 HEK-ISRE-luc cells/well in 30 μL (plated the day before). Following 24 hours of incubation, activation of the ISRE elements was measured by assaying luciferase activity using 40 μL/well Steady Lite Plus substrate (Perkin Elmer) and measured with ViewLux ultraHTS microplate imager (Perkin Elmer). The stimulating activity of each compound on the HEK-ISRE-luc cells was reported as LEC. The LEC in turn indicates the degree of ISRE activation on transfer of a defined amount of PBMC culture medium. Recombinant interferon alfa-2a (Roferon-A) was used as a standard control compound.

| SMILES | HEK293 TLR7-NFκB-luc (LEC; μM) [1] | minimal effective concentration [2] | PBMC HEK-ISRE-luc (LEC; μM) ([2]; 24 hours) |
| --- | --- | --- | --- |
| Nc1nc2nc3c1nc(O)n3Cc1cccc(c1)CCCCCN2 [Compound 31] | 1.36 µM | 0.263 µM |  |
| Nc1nc2nc3c1nc(O)n3Cc1cccc(c1)OCCOCCO2 [Compound 12] | 0.39 µM | 0.043 µM |  |
| Nc1nc2nc3c1nc(O)n3CCc1cccc(c1)OC/C=C/CO2 [Compound 32] | 0.92 µM | 0.12 µM |  |
| Nc1nc2nc3c1nc(O)n3Cc1cccc(c1)OCCOCCN2 [Compound 13] | 14.69 µM | 4.7 µM |  |
| Nc1nc2nc3c1nc(O)n3Cc1cccc(c1)CCCCCCn1ccnc1-2 [Compound 4] | 3.27 µM | 0.64 µM |  |
| COc1ccc2cc1Cn1c(O)nc3c(N)nc(nc31)OC/C=C\CO2 [Compound 74] | 0.1 µM | 0.044 µM |  |
| Nc1nc2nc3c1nc(O)n3Cc1ccc(F)c(c1)OCCCCN2 [Compound 92] | 0.47 µM |  |  |
| Nc1nc2nc3c1nc(O)n3Cc1ccccc1OC/C=C\CO2 [Compound 77] | 0.53 µM | 0.1 µM |  |
| COc1c2cccc1OC/C=C/COc1nc(N)c3nc(O)n(c3n1)C2 [Compound 61] | 4.7 µM | 4.98 µM |  |
| Nc1nc2nc3c1nc(O)n3Cc1cccc(c1)OCCCCN2 [Compound 8] | 2.42 µM | 0.68 µM |  |
| Nc1nc2nc3c1nc(O)n3Cc1ccc(F)c(c1)OC/C=C\CN2 [Compound 89] | 0.4 µM |  |  |
| CC1CCOc2cccc(c2)Cn2c(O)nc3c(N)nc(nc32)OC1 (centres unmarked) [Compound 71] | 0.12 µM | 0.04 µM |  |
| Nc1nc2nc3c1nc(O)n3Cc1cccc(c1)OCC(=O)NCCCO2 [Compound 80] | 0.041 µM | 0.087 µM |  |
| Nc1nc2nc3c1nc(O)n3Cc1cccc(n1)OCC(=O)NCCCO2 [Compound 9] | 0.30 µM | 0.098 µM |  |
| Nc1nc2nc3c1nc(O)n3Cc1cccc(c1)CCCCCC(CO)N2 (centres unmarked) [Compound 10] | 5.26 µM | 0.53 µM |  |
| Nc1nc2nc3c1ncn3Cc1ncccc1OC/C=C\CCO2 [Compound 79] | 2.34 µM | 1.78 µM |  |
| Nc1nc2nc3c1nc(O)n3Cc1ccc(F)c(c1)OC/C=C/CN2 [Compound 90] | 0.063 µM |  |  |

The next lines start with results.

| HEK293 TLR7-NFκB-luc (LEC; μM) [1] | SMILES | minimal effective concentration [2] | PBMC HEK-ISRE-luc (LEC; μM) ([2]; 24 hours) |
| --- | --- | --- | --- |
| 0.050 µM | Nc1nc2nc3c1nc(O)n3Cc1cccc(c1)OCCCCO2 [Compound 11] | 0.022 µM |  |
| 0.12 µM | Nc1nc2nc3c1nc(O)n3Cc1cccc(c1)C/C=C/CCO2 [Compound 15] | 0.016 µM |  |
| 12.45 µM | Nc1nc2nc3c1nc(O)n3Cc1ccc(cc1)C/C=C\CCCCO2 [Compound 36] | 0.68 µM |  |
| 0.034 µM | Nc1nc2nc3c1nc(O)n3Cc1ccc(F)c(c1)OC/C=C/CO2 [Compound 87] |  |  |
| 0.87 µM | Nc1nc2nc3c1nc(O)n3Cc1cccc(c1)C/C=C/CCC(CO)N2 (centres unmarked) [Compound 7] | 0.31 µM |  |
| 0.154 µM | Nc1nc2nc3c1nc(O)n3Cc1cccc(c1)C/C=C\CCO2 [Compound 1] |  | 0.081 µM |
| 0.12 µM | Nc1nc2nc3c1nc(O)n3Cc1ccccc1OCCCCO2 [Compound 76] | 0.064 µM |  |
| 1.31 µM | Nc1nc2nc3c1nc(O)n3Cc1cccc(c1)OC/C=C/CCO2 [Compound 27] | 0.11 µM |  |
| 0.74 µM | Nc1nc2nc3c1nc(O)n3Cc1cc(ccn1)OC/C=C/CCO2 [Compound 51] | 0.069 µM |  |
| 0.018 µM | COc1ccc2cc1Cn1c(O)nc3c(N)nc(nc31)OCC/C=C\C2 [Compound 72] | 0.0029 µM |  |
| 0.21 µM | Nc1nc2nc3c1nc(O)n3Cc1cccc(n1)OC/C=C/CCCO2 [Compound 49] | 0.16 µM |  |
| 0.77 µM | Nc1nc2nc3c1nc(O)n3Cc1cccc(c1)C/C=C/CCCN2 [Compound 28] | 0.26 µM |  |
| >25 µM | Nc1nc2nc3c1nc(O)n3CCc1cccc(c1)CCCCCO2 [Compound 83] | 2.66 µM |  |
| 1.49 µM | Nc1nc2nc3c1nc(O)n3CCc1cccc(c1)OCCCCO2 [Compound 64] | 0.5 µM |  |
| 0.045 µM | COc1ccc2cc1Cn1c(O)nc3c(N)nc(nc31)OCC/C=C/C2 [Compound 73] | 0.01 µM |  |
| 0.51 µM | Nc1nc2nc3c1nc(O)n3Cc1cccc(c1)CCCCCO2 [Compound 2] | 0.22 µM |  |
| 0.108 µM | Nc1nc2nc3c1nc(O)n3Cc1ncccc1OC/C=C\CCO2 [Compound 45] | 0.01 µM |  |
| 0.11 µM | Nc1nc2nc3c1nc(O)n3Cc1cccc(c1)OCCCCCCO2 [Compound 43] | 0.034 µM |  |
| 0.3 µM | Nc1nc2nc3c1nc(O)n3Cc1cccc(c1)OCC/C=C/CO2 [Compound 21] | 0.05 µM |  |
| 0.24 µM | Nc1nc2nc3c1nc(O)n3Cc1cccc(c1)CC(=O)NCCCO2 [Compound 5] | 0.044 µM |  |
| 6.49 µM | Nc1nc2nc3c1nc(O)n3Cc1cccc(n1)CC/C=C\CCO2 [Compound 46] | 1.13 µM |  |
| 0.006 µM | COc1ccc2cc1C/C=C/CCOc1nc(N)c3nc(O)n(c3n1)C2 [Compound 68] | 0.0057 µM |  |
| 0.11 µM | Nc1nc2nc3c1nc(O)n3Cc1ccc(F)c(c1)OC/C=C\CO2 [Compound 88] |  |  |
| 3.95 µM | Nc1nc2nc3c1nc(O)n3CCc1cccc(c1)C/C=C/CCO2 [Compound 82] |  |  |
| 0.14 µM | Nc1nc2nc3c1nc(O)n3Cc1ccc(F)c(c1)OCCCCO2 [Compound 91] |  |  |

Source: US10822349B2, “Macrocyclic purines for the treatment of viral infections” (JANSSEN SCIENCES IRELAND UNLIMITED COMPANY, priority 2012, dated 2020)
